Assay results: the supplement of paper PMC10627819

Columns and labels:
Assay in all cases: fitness (endpoint OD595 vs no drug) (fraction); higher = more growth
[1] = tested on: S. aureus Newman
Procedure, shortened: (§1)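 Bacterial fitness was scored as optical density at the stationary-phase transition relative to the robust mean of no-drug control wells. Scores are capped at 1. The growth data were OD595 readings every 30 min for 14 h at 37 °C, background-subtracted against the first reading, from 384-well plates inoculated at OD595 0.01 in TSB, LB Lennox or CY.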

[2] = tested on: B. subtilis 168
Procedure, shortened: as §1

[3] = tested on: S. pneumoniae D39V
Procedure, shortened: as §1
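Also: OD595 on entry to stationary phase over no-drug wells; at most 1.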

CO/N=C(\C(=O)N[C@@H]1C(=O)N2C(C(=O)O)=C(COC(N)=O)CS[C@H]12)c1ccco1 [Cefuroxime] + CC1(C)S[C@@H]2[C@H](NC(=O)Cc3ccccc3)C(=O)N2[C@H]1C(=O)O [Penicillin G]
fitness, [1], one replicate
Settings | first compound 0.04875 µg/mL | first compound 0.0975 µg/mL | first compound 0.195 µg/mL
partner 0.0195 µg/mL | 0.873 | 0.849 | 0.889
partner 0.039 µg/mL | 0.959 | 0.831 | 0.907
partner 0.078 µg/mL | 0.898 | 0.888 | 0.906

CN(C)[C@@H]1C(O)=C(C(N)=O)C(=O)[C@@]2(O)C(O)=C3C(=O)c4c(O)ccc(Cl)c4[C@@](C)(O)[C@H]3C[C@@H]12 [Chlortetracycline] + CN[C@@H]1[C@H](O[C@H]2[C@H](O[C@H]3[C@H](O)[C@@H](O)[C@H](N=C(N)N)[C@@H](O)[C@@H]3N=C(N)N)O[C@@H](C)[C@]2(O)C=O)O[C@@H](CO)[C@H](O)[C@H]1O [Streptomycin]
fitness
Settings | partner 2 µg/mL | partner 4 µg/mL | partner 8 µg/mL
[2], first compound 0.0475 µg/mL | 0.863 | 0.729 | –
[2], first compound 0.095 µg/mL | 0.735 | 0.601 | –
[2], first compound 0.19 µg/mL | 0.473 | 0.367 | 0.0988
[3], first compound 0.012 µg/mL | – | 0.898 | 0.829
[3], first compound 0.024 µg/mL | – | 0.827 | 0.794
[3], first compound 0.048 µg/mL | – | 0.762 | 0.779
[3], first compound 0.375 µg/mL | 0.0439 | 0.0457 | 0.0281
[3], first compound 0.75 µg/mL | 0.0196 | 0.0558 | 0.0751
[3], first compound 1.5 µg/mL | 0.0385 | 0.0525 | 0.0578

fitness, [3], one replicate
Settings | first compound 0.012 µg/mL | first compound 0.024 µg/mL | first compound 0.048 µg/mL
partner 2 µg/mL | 0.886 | 0.861 | 0.794
partner 16 µg/mL | 0.757 | 0.72 | 0.619

CO/N=C(\C(=O)N[C@@H]1C(=O)N2C(C(=O)O)=C(COC(C)=O)CS[C@H]12)c1csc(N)n1 [Cefotaxime] + CC1(C)S[C@@H]2[C@H](NC(=O)Cc3ccccc3)C(=O)N2[C@H]1C(=O)O [Penicillin G]
fitness, [1]
Settings | first compound 0.078 µg/mL | first compound 0.156 µg/mL | first compound 0.312 µg/mL
partner 0.0195 µg/mL | 0.677 | 0.506 | 0.297
partner 0.039 µg/mL | 0.644 | 0.49 | 0.288
partner 0.078 µg/mL | 0.693 | 0.541 | 0.301

fitness, [1], one replicate
Settings | first compound 0.625 µg/mL | first compound 1.25 µg/mL | first compound 2.5 µg/mL
partner 0.0195 µg/mL | 0.0231 | 0.0448 | 0.071
partner 0.039 µg/mL | 0.0366 | 0.0335 | 0.0438
partner 0.078 µg/mL | 0.0525 | 0.0319 | 0.0774

CC1(C)S[C@@H]2[C@H](NC(=O)Cc3ccccc3)C(=O)N2[C@H]1C(=O)O [Penicillin G] + CC1=C\[C@@H](O)CC(=O)Cc2nc(co2)C(=O)N2CCC=C2C(=O)O[C@H](C(C)C)[C@H](C)/C=C/C(=O)NC\C=C\1 [Virginiamycin M1]
fitness, [1]
Settings | first compound 0.0195 µg/mL | first compound 0.039 µg/mL | first compound 0.078 µg/mL
partner 0.0625 µg/mL | 0.896 | 0.929 | 0.917
partner 0.125 µg/mL | 0.935 | 0.924 | 0.955
partner 0.25 µg/mL | 0.914 | 0.913 | 0.925

fitness, [1], one replicate
Settings | first compound 0.0195 µg/mL | first compound 0.039 µg/mL | first compound 0.078 µg/mL
partner 0.5 µg/mL | 0.834 | 0.766 | 0.788
partner 1 µg/mL | 0.916 | 0.877 | 0.856
partner 2 µg/mL | 0.807 | 0.741 | 0.717

CN(C)[C@@H]1C(O)=C(C(N)=O)C(=O)[C@@]2(O)C(O)=C3C(=O)c4c(O)ccc(Cl)c4[C@@](C)(O)[C@H]3C[C@@H]12 [Chlortetracycline] + C[C@H]1COc2c(N3CCN(C)CC3)c(F)cc3c(=O)c(C(=O)O)cn1c23 [Levofloxacin]
fitness, [2], one replicate
Settings | first compound 0.0475 µg/mL | first compound 0.095 µg/mL | first compound 0.19 µg/mL
partner 0.001 µg/mL | 0.924 | 0.912 | 0.674
partner 0.0078 µg/mL | 0.907 | 0.824 | 0.623

Settings | fitness
[2], first compound 0.0475 µg/mL, partner 0.002 µg/mL | 0.898
[2], first compound 0.0475 µg/mL, partner 0.0039 µg/mL | 0.855
[2], first compound 0.0475 µg/mL, partner 0.0312 µg/mL | 0.0308
[2], first compound 0.0475 µg/mL, partner 0.0625 µg/mL | 0.0341
[2], first compound 0.0475 µg/mL, partner 0.125 µg/mL | 0.0327
[2], first compound 0.095 µg/mL, partner 0.002 µg/mL | 0.854
[2], first compound 0.095 µg/mL, partner 0.0039 µg/mL | 0.854
[2], first compound 0.095 µg/mL, partner 0.0312 µg/mL | 0.0231
[2], first compound 0.095 µg/mL, partner 0.0625 µg/mL | 0.0369
[2], first compound 0.095 µg/mL, partner 0.125 µg/mL | 0.028
[2], first compound 0.19 µg/mL, partner 0.002 µg/mL | 0.593
[2], first compound 0.19 µg/mL, partner 0.0039 µg/mL | 0.61
[2], first compound 0.19 µg/mL, partner 0.0312 µg/mL | 0.0218
[2], first compound 0.19 µg/mL, partner 0.0625 µg/mL | 0.054
[2], first compound 0.19 µg/mL, partner 0.125 µg/mL | 0.032
[3], first compound 0.012 µg/mL, partner 0.1725 µg/mL | 0.949
[3], first compound 0.012 µg/mL, partner 0.345 µg/mL | 0.803
[3], first compound 0.012 µg/mL, partner 0.69 µg/mL | 0.603
[3], first compound 0.024 µg/mL, partner 0.1725 µg/mL | 0.909
[3], first compound 0.024 µg/mL, partner 0.345 µg/mL | 0.88
[3], first compound 0.024 µg/mL, partner 0.69 µg/mL | 0.546
[3], first compound 0.048 µg/mL, partner 0.1725 µg/mL | 0.869
[3], first compound 0.048 µg/mL, partner 0.345 µg/mL | 0.828
[3], first compound 0.375 µg/mL, partner 0.2 µg/mL | 0.0411
[3], first compound 0.375 µg/mL, partner 0.4 µg/mL | 0.0338
[3], first compound 0.375 µg/mL, partner 0.8 µg/mL | 0.0351
[3], first compound 0.75 µg/mL, partner 0.2 µg/mL | 0.0448
[3], first compound 0.75 µg/mL, partner 0.4 µg/mL | 0.0671
[3], first compound 0.75 µg/mL, partner 0.8 µg/mL | 0.0531
[3], first compound 1.5 µg/mL, partner 0.2 µg/mL | 0.0471
[3], first compound 1.5 µg/mL, partner 0.4 µg/mL | 0.0332
[3], first compound 1.5 µg/mL, partner 0.8 µg/mL | 0.0439
